Data from the supplement of paper PMC10307832.

Columns and labels:
Assay in all cases: relative viability (nuclei count vs DMSO), 5 days (fraction); higher = more cells survive
HCC-44 = system: HCC-44
Summary of the method: (§1)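 Lung cancer cell lines were pin-tool dosed in 1536-well plates on the day after seeding, with either a lone drug or a fixed anchor-drug dose plus five library-drug doses (not always all listed) in √10 steps. Nuclei were counted on 4× images after 5 days. Relative viability is the ratio of treated-well to vehicle-well nuclei counts, with each value a median of duplicate plates.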

NCI-H1648 = system: NCI-H1648
Summary of the method: as §1

NCI-H1395 = system: NCI-H1395
Summary of the method: as §1

EKVX = system: EKVX
Summary of the method: as §1

NCI-H1755 = system: NCI-H1755
Summary of the method: as §1

LCLC-103H = system: LCLC-103H
Summary of the method: as §1

NCI-H1703 = system: NCI-H1703
Summary of the method: as §1

HCC-15 = system: HCC-15
Summary of the method: as §1

IA-LM = system: IA-LM
Summary of the method: as §1

UMC-11 = system: UMC-11
Summary of the method: as §1

COc1cc2nccc(Oc3ccc(NC(=O)Nc4cc(C)on4)c(Cl)c3)c2cc1OC [Tivozanib] + NC(=O)Nc1cc(-c2cccc(F)c2)sc1C(=O)N[C@H]1CCCNC1 [AZD7762] (partner 0.2 µM) gave a relative viability (HCC-44; first compound 0.005 µM) of 0.996, a relative viability (HCC-44; first compound 0.01581 µM) of 0.963 and a relative viability (HCC-44; first compound 0.05 µM) of 1.01. It also gave a relative viability (HCC-44; first compound 0.1581 µM) of 1.09, a relative viability (HCC-44; first compound 0.5 µM) of 1.01 and a relative viability (NCI-H1648; first compound 0.005 µM) of 0.666. For the same compound, the relative viability (NCI-H1648; first compound 0.01581 µM) was 0.708, the relative viability (NCI-H1648; first compound 0.05 µM) was 0.693 and the relative viability (NCI-H1648; first compound 0.1581 µM) was 0.585. The relative viability (NCI-H1648; first compound 0.5 µM) was 0.695, the relative viability (NCI-H1395; first compound 0.005 µM) was 0.359 and the relative viability (NCI-H1395; first compound 0.01581 µM) was 0.389. It also gave a relative viability (NCI-H1395; first compound 0.05 µM) of 0.402, a relative viability (NCI-H1395; first compound 0.1581 µM) of 0.386 and a relative viability (NCI-H1395; first compound 0.5 µM) of 0.35. It also gave a relative viability (EKVX; first compound 0.005 µM) of 0.592, a relative viability (EKVX; first compound 0.01581 µM) of 0.695 and a relative viability (EKVX; first compound 0.05 µM) of 0.76. For the same compound, the relative viability (EKVX; first compound 0.1581 µM) was 0.69, the relative viability (EKVX; first compound 0.5 µM) was 0.689 and the relative viability (NCI-H1755; first compound 0.005 µM) was 0.441. It also gave a relative viability (NCI-H1755; first compound 0.01581 µM) of 0.428, a relative viability (NCI-H1755; first compound 0.05 µM) of 0.444 and a relative viability (NCI-H1755; first compound 0.1581 µM) of 0.457. The relative viability (NCI-H1755; first compound 0.5 µM) was 0.411, the relative viability (LCLC-103H; first compound 0.005 µM) was 0.758 and the relative viability (LCLC-103H; first compound 0.01581 µM) was 0.829. It also gave a relative viability (LCLC-103H; first compound 0.05 µM) of 0.812, a relative viability (LCLC-103H; first compound 0.1581 µM) of 0.689 and a relative viability (LCLC-103H; first compound 0.5 µM) of 0.802. The relative viability (NCI-H1703; first compound 0.005 µM) was 0.124, the relative viability (NCI-H1703; first compound 0.01581 µM) was 0.112 and the relative viability (NCI-H1703; first compound 0.05 µM) was 0.139. The relative viability (NCI-H1703; first compound 0.1581 µM) was 0.143, the relative viability (NCI-H1703; first compound 0.5 µM) was 0.118 and the relative viability (HCC-15; first compound 0.005 µM) was 1.18. For the same compound, the relative viability (HCC-15; first compound 0.01581 µM) was 1.28, the relative viability (HCC-15; first compound 0.05 µM) was 1.34 and the relative viability (HCC-15; first compound 0.1581 µM) was 1.29. The relative viability (HCC-15; first compound 0.5 µM) was 1.33.
COc1cc2nccc(Oc3ccc(NC(=O)Nc4cc(C)on4)c(Cl)c3)c2cc1OC [Tivozanib] + O=C(CCCCCCC(=O)Nc1ccccc1)NO [Vorinostat] (partner 1 µM) was tested, and the relative viability (HCC-44; first compound 0.005 µM) was 1.03, the relative viability (HCC-44; first compound 0.01581 µM) was 1.09 and the relative viability (HCC-44; first compound 0.05 µM) was 1.1. It also gave a relative viability (HCC-44; first compound 0.1581 µM) of 1.17, a relative viability (HCC-44; first compound 0.5 µM) of 1.02 and a relative viability (NCI-H1648; first compound 0.005 µM) of 0.453. It also gave a relative viability (NCI-H1648; first compound 0.01581 µM) of 0.706, a relative viability (NCI-H1648; first compound 0.05 µM) of 0.804 and a relative viability (NCI-H1648; first compound 0.1581 µM) of 0.796. It also gave a relative viability (NCI-H1648; first compound 0.5 µM) of 0.423, a relative viability (NCI-H1395; first compound 0.005 µM) of 0.476 and a relative viability (NCI-H1395; first compound 0.01581 µM) of 0.747. The relative viability (NCI-H1395; first compound 0.05 µM) was 0.932, the relative viability (NCI-H1395; first compound 0.1581 µM) was 0.58 and the relative viability (NCI-H1395; first compound 0.5 µM) was 0.424. It also gave a relative viability (IA-LM; first compound 0.005 µM) of 0.93, a relative viability (IA-LM; first compound 0.01581 µM) of 0.981 and a relative viability (IA-LM; first compound 0.05 µM) of 0.872. The relative viability (IA-LM; first compound 0.5 µM) was 0.836, the relative viability (EKVX; first compound 0.005 µM) was 0.787 and the relative viability (EKVX; first compound 0.01581 µM) was 0.684. It also gave a relative viability (EKVX; first compound 0.05 µM) of 0.803, a relative viability (EKVX; first compound 0.5 µM) of 0.765 and a relative viability (NCI-H1755; first compound 0.005 µM) of 0.742. It also gave a relative viability (NCI-H1755; first compound 0.01581 µM) of 0.786, a relative viability (NCI-H1755; first compound 0.05 µM) of 0.739 and a relative viability (NCI-H1755; first compound 0.1581 µM) of 0.706. For the same compound, the relative viability (NCI-H1755; first compound 0.5 µM) was 0.587, the relative viability (LCLC-103H; first compound 0.005 µM) was 0.668 and the relative viability (LCLC-103H; first compound 0.01581 µM) was 0.809. For the same compound, the relative viability (LCLC-103H; first compound 0.05 µM) was 0.86, the relative viability (LCLC-103H; first compound 0.1581 µM) was 0.824 and the relative viability (LCLC-103H; first compound 0.5 µM) was 0.656. For the same compound, the relative viability (UMC-11; first compound 0.005 µM) was 0.404, the relative viability (UMC-11; first compound 0.01581 µM) was 0.36 and the relative viability (UMC-11; first compound 0.05 µM) was 0.349. It also gave a relative viability (UMC-11; first compound 0.1581 µM) of 0.328, a relative viability (UMC-11; first compound 0.5 µM) of 0.329 and a relative viability (HCC-15; first compound 0.005 µM) of 0.797. The relative viability (HCC-15; first compound 0.01581 µM) was 0.896, the relative viability (HCC-15; first compound 0.05 µM) was 0.857 and the relative viability (HCC-15; first compound 0.1581 µM) was 0.863. For the same compound, the relative viability (HCC-15; first compound 0.5 µM) was 0.886.
